Data taken from US20040247639A1, “Novel methods and compositions for the treatment or prevention of dysmenorrhoea and menstrual side effects: the use of phospholipase inhibitors” (priority 2000, published 2004).
Read-outs that look alike come from different tables or passages of the source. Blank lines part the entries; values can stand above or below the molecule they belong to.

Columns and labels:
[1] = target: T1, human non-pancreatic secretory PLA2 (type IIa) (Homo sapiens, UniProt P14555); test: Mixed micelle colorimetric assay for inhibition of human non-pancreatic sPLA2 (type IIa); format: biochemical; details: thio-PC/Triton X-100 mixed micelles, 37° C., Dixon plot (FIG. 3); read-out: IC50 against human non-pancreatic sPLA2 (type IIa)
T1 sequence (P14555 21-144): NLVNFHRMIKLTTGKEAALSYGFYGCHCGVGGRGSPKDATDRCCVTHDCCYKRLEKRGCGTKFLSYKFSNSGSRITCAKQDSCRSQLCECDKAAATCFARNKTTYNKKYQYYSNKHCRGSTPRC
Experimental: Reagents were obtained commercially in the sPhospholipase A2 Assay Kit, Cayman Chemical Company MI USA. Buffer (25 mM Tris HCl at pH 7.5, 1 mg/mL BSA, 0.3 mM Triton X-100, 100 mM KCl, 10 mM CaCl2), substrate (diheptanoyl thio-phosphatidyl choline), DTNB (5,5′-dithiobis(2-nitrobenzoic acid)) and a 96 well plate were all provided. Recombinant hIIa-PLA2 was provided by the Garvan Institute for Medical Research. […] Standard inhibitor solutions were prepared from anhydrous DMSO. All samples were run in triplicate including the blank and control samples.
[…] Thio-PC is processed by s-PLA2 and the free thiol produced is detected with DTNB (Ellman's Reagent). 5-Thio-2-nitrobenzoic acid is detected spectrophotometrically at […]. IC50's were determined by assaying inhibitors at a range of concentrations.

[2] = test system: rat uterus; test: Spontaneous contractions of rat uterus in organ bath (naturally-cycling rats)
Text: (§1) To examine the potential benefit of PLA2 inhibitors in treating dysmenorrhoea in women, an in vitro model was developed which measured the force and frequency of contractions in a rat uterus. When removed from the rat and placed in an organ bath, the uterus contracts rhythmically. The force of contraction varies with the profile of sex hormones produced by the animal at the different stages of the sexual (oestrus) cycle. Levels of oestrogen and progesterone fluctuate throughout the sexual cycle. […]
(§2) In this model the uterine contractions are stimulated by the synthesis and release of eicosanoids and other contractile mediators by cells in the uterus, which then act on the muscle cells in the uterine wall to cause contraction. Compounds 5 and 9 were tested for their ability to inhibit spontaneous and oxytocin-induced contractions of a female rat uterus (described ahead). Addition of oxytocin, a hormone synthesised in the pituitary gland, gives uterine contractions of greater force and frequency by increasing the release of eicosanoids (Wassdal, I et al, 1998, Acta Physiol Scand, 164: 47-52, Burns, P D et al, 1998, Domest Anim Endocrinol, 15: 477-487, Asselin, E et al, 1997, Endocrinology, 138: 4798-4805). There is a relationship between the stage of the sexual cycle and the sensitivity of the uterus to oxytocin (Engstrom, T et al., 1999, J. Endocrinol., 161: 403-411). It has been shown that the contractions can be reduced if the synthesis of the mediators is blocked.
(§3) Uteri were removed from rats, divided into 4 segments and placed in organ baths to measure force and frequency of contraction. Spontaneous contractions were measured, then each segment of uterus was challenged with oxytocin (1 μI.U. to 100 mI.U.). The force and frequency of contraction was measured after oxytocin addition and a concentration response curve generated. The drugs—either an sPLA2 inhibitor or a NSAID—was then added to the bath and allowed to equilibrate for 30 minutes. The drugs were tested at concentrations ranging from 1 nM to 10 μM with one piece of tissue per concentration. The tissue was then challenged with increasing concentrations of oxytocin to generate a second concentration-response curve. The EC50 concentrations in control and drug-treated tissue were determined from the curves and compared.

[3] = test system: rat uterus; test: Oxytocin-induced contractions of rat uterus in organ bath (naturally-cycling rats)
Text: as §1, §2, §3

[4] = test system: rat uterus; test: Spontaneous uterine work in uteri of ovarectomised, sex hormone-treated rats; details: for spontaneous uterine work: uteri removed 4 days after hormone treatment of ovarectomised rats, n=4-5
Text: (§4) To examine the potential benefit of PLA2 inhibitors in treating dysmenorrhoea in women, an in vitro model was developed which measured the force and frequency of contractions in a rat uterus. When removed from the rat and placed in an organ bath, the uterus contracts rhythmically. The force of contraction varies with the profile of sex hormones produced by the animal at the different stages of the sexual (oestrus) cycle. Levels of oestrogen and progesterone fluctuate throughout the sexual cycle. To ensure a reproducible model, rats were ovarectomised and oestrogen, progesterone, a combination of oestrogen and progesterone and an inert control substance were given to mimic different stages of the sexual cycle.
(§5) In a separate series of experiments, rats were ovarectomised then treated with sex hormones to ensure animals are at the same stage of the oestrus cycle. Uteri were removed from the rats 4 days after hormone treatment, allowed to equilibrate in the organ baths for 30 minutes, then the intensity of uterine contractions and frequency of the spontaneous contractions was measured. In the oestrogen-primed uteri, spontaneous uterine work was […], in progesterone-primed rats, 10±0.9 mNs^−1, in oestrogen plus progesterone-primed uteri, 9±1.5 mNs^−1 and in control uteri 7.9±0.6 mNs^−1.
(§6) sPLA2 inhibitor 5 and ketoprofen were tested in the model to determine their ability to moderate both spontaneous contractions and contractile activity stimulated by oxytocin.

[5] = test system: rat uterus; test: Oxytocin-challenged uterine work in uteri of ovarectomised, sex hormone-treated rats; design: maximum decrease in the intensity of the oxytocin response: dose or concentration left out as unconfirmed; details: for inhibition at 0.1 µM: 100 nM; for change of oxytocin EC50 values: 1 nM-1 μM; for maximum uterine work with oxytocin: hormone-treated group challenged with 100 mU oxytocin
Text: as §4, §5
Challenging with oxytocin caused an increase in uterine work over baseline spontaneous activity.
as §6

[6] = test system: rat uterus; test: Rat uterine contractions, spontaneous and oxytocin-induced together; details: for EC50: Rattus norvegicus; for drug concentrations suppressing spontaneous and oxytocin-induced uterine contractions: rat uterine model
Text: as §4
as §2, with “Compounds 5 and 9 were tested for their ability to inhibit spontaneous and oxytocin-induced contractions of a female rat uterus (described ahead).” left out
as §3

[7] = test system: monocyte leukotriene release; details: Cha, 1996; cited from earlier work
[8] = target: T2, type V human non-pancreatic sPLA2 (Homo sapiens, UniProt P39877); details: Chen, Y. et al, 1998; cited from earlier work
T2 sequence (P39877 21-138): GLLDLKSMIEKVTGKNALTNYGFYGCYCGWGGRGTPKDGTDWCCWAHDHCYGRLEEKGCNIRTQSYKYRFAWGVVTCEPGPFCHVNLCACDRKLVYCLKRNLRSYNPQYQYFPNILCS

[9] = Table 1, rat uterus model, read-out: ED50 Spontaneous contractions
[10] = Table 1, rat uterus model, read-out: ED50 Oxytocin-induced contractions
[11] = Rattus norvegicus, Oestrogen (O) group, mean ± SEM, read-out: maximum inhibition of uterine work, oxytocin challenge
[12] = Rattus norvegicus, Vehicle group, mean ± SEM, read-out: maximum inhibition of uterine work, oxytocin challenge
[13] = range over spontaneous and oxytocin-induced contractions, read-out: EC50, inhibition of uterine contractions
[14] = Table 1, rat uterus model, NSAIDs

IC50 [1]: 42 nM
EC50 ([2]; Rattus norvegicus, FIG. 4, n=3, read-out: EC50, spontaneous activity of rat uteri in the organ bath): 30 nM
EC50 [2, 9]: 30 nM
EC50 ([3]; Rattus norvegicus, FIG. 5, n=3, read-out: ED50, uterine contractions induced by oxytocin): 20 nM
EC50 [3, 10]: 20 nM
change of oxytocin EC50 values ([5]; oestrogen and progesterone treated uteri, n=5): did not inhibit
change of oxytocin EC50 values ([5]; oestrogen treated uteri, n=4): did not alter
EC50 [6, 13]: 1 to 20 nM
melting point: 89 to 91.5 °C
Molecule: O=C(O)CC[C@@H](CSc1ccc(Cc2ccccc2)cc1)NC(=O)CCCCCCc1ccccc1 [Compound 5, (S)-5-(4-Benzyl-phenylsulfanyl)-4-(7-phenyl-heptanoylamino)-pentanoic acid]
effect on spontaneous activity ([4]; oestrogen and progesterone treated uteri, 1 nM-1 μM, n=5): did not inhibit
effect on spontaneous activity ([4]; oestrogen treated uteri, 10 nM, n=4, P<0.05): inhibited
effect on spontaneous activity ([4]; oil vehicle (control) rats, 1 nM, n=4, P<0.05): inhibited spontaneous activity
effect on spontaneous activity ([4]; progesterone treated uteri, 1 nM-1 μM, n=5): did not significantly inhibit
inhibition at 0.001 µM ([5]; Rattus norvegicus, O + P group, 1 nM, mean ± SEM, read-out: maximum inhibition of uterine work, oxytocin challenge): 62%
inhibition at 0.1 µM [5, 11]: 34%
inhibition at 0.01 µM ([5]; Rattus norvegicus, Progesterone (P) group, 10 nM, mean ± SEM, read-out: maximum inhibition of uterine work, oxytocin challenge): 65%
inhibition at 0.1 µM [5, 12]: 40%
maximum decrease in the intensity of the oxytocin response ([5]; oestrogen treated uteri): 34%±5%
potency in inhibiting uterine contractions compared to NSAIDs [6]: 1,000 fold
IC50 [7]: 350 nM

EC50 [2, 9]: 80 nM
EC50 [3, 10]: 200 nM
EC50 ([6]; FIG. 6, n=2, read-out: EC50, spontaneous contraction and oxytocin induced contractions in rat uterus): ~100 nM
EC50 [6, 13]: 80 to 200 nM
Molecule: Cc1c(CC(N)=O)c2cc(OCCCP(=O)(O)O)ccc2n1Cc1ccccc1 [Compound 9, [3-(1-Benzyl-3-carbamoylmethyl-2-methyl-1H-indol-5-yloxy)-propyl]-phosphonic acid]
IC50 [8]: 36 nM

EC50 ([2]; Table 1, rat uterus model, NSAIDs, read-out: ED50 Spontaneous contractions): 1000 nM
EC50 ([3]; Table 1, rat uterus model, NSAIDs, read-out: ED50 Oxytocin-induced contractions): 1000 nM
Molecule: Cc1c(Nc2ncccc2C(=O)O)cccc1C(F)(F)F [Flunixin, flunixin meglumine, reference compound]
effect on spontaneous rat uterine contractions ([2]; FIG. 7, 1 μM and 5 μM, n=3): reduced spontaneous contractions
effect on oxytocin-induced contractions ([3]; FIG. 7, n=3): no effect
drug concentrations suppressing spontaneous and oxytocin-induced uterine contractions [6]: micromolar to millimolar

Molecule: CC(C(=O)O)c1cccc(C(=O)c2ccccc2)c1 (stereo not drawn) [Ketoprofen, ketoprofen, reference compound]
maximum inhibition of uterine work, oxytocin challenge ([5]; O + P group, up to 10 μM): no inhibitory effect
inhibition at 0.1 µM [5, 11]: 29%
inhibition at 0.1 µM ([5]; Rattus norvegicus, Progesterone (P) group, mean ± SEM, read-out: maximum inhibition of uterine work, oxytocin challenge): 84%
inhibition at 0.1 µM [5, 12]: 79%

Molecule: CN1C(C(=O)Nc2ccccn2)=C(O)c2ccccc2S1(=O)=O [Piroxicam, piroxicam, reference compound]
ED50 Spontaneous contractions [2, 14]: No effect
ED50 Oxytocin-induced contractions [3, 14]: No Effect
drug concentrations suppressing spontaneous and oxytocin-induced uterine contractions [6]: micromolar to millimolar

Molecule: COc1ccc2cc([C@H](C)C(=O)O)ccc2c1 [naproxen, reference compound]
drug concentrations suppressing spontaneous and oxytocin-induced uterine contractions [6]: micromolar to millimolar

Molecule: CC(=O)[C@H]1CC[C@H]2[C@@H]3CCC4=CC(=O)CC[C@]4(C)[C@H]3CC[C@]12C [progesterone]
spontaneous uterine work [4]: 10±0.9 mNs^−1
maximum uterine work with oxytocin [5]: 0.9 mNs^−1

Molecule: oestrogen
spontaneous uterine work [4]: 7.2±1.4 mNs^−1
maximum uterine work with oxytocin [5]: 15.7 mNs^−1
